US10633348B2, “Methods to treat lymphoplasmacytic lymphoma” (Dana-Farber Cancer Institute, Inc., priority 2013, dated 2020)

Key:
Type in all cases: cell-based
BTK-pY223 = assay: PhosFlow; details: BCWM.1, Hck-wt and Hck-mu BCWM.1 cells; 0.5 μM and 0.1 μM
Experimental: PhosFlow was performed to detect levels of phosphorylation for BTK-pY223 (BD Biosciences) and Hck-pY410 (Abcam) in BCWM.1 cells, in BCWM cells that stably overexpress HCK (BCWM.1_HCK-wt) and in BCWM.1 cells that stably overexpress the T338M mutant of HCK (BCWM.1_HCK-mu). Cells were fixed with BD Phosflow Fix Buffer I (BD Biosciences) at 37° C. for 10 min, then washed twice with BD Phosflow Perm/Wash Buffer I (BD Biosciences). Cells were suspended in BD Phosflow Perm/Wash Buffer I at 10 million/ml and antibodies aliquoted to flow tubes with 100 μl cells. Cells were incubated at room temperature for 30 min in the dark. Cells were washed twice with BD Phosflow Perm/Wash Buffer I before performing flow analysis using a BD™ FACSCanto II flow cytometer.

BTK = system: BTK
CAMK4 = system: CAMK4
CAMKK2 = system: CAMKK2
CDK2 = system: CDK2
CDK4 = system: CDK4
CDK5 = system: CDK5
CHK1 = system: CHK1
CHK2 = system: CHK2
eEF2K = system: eEF2K
GCK = system: GCK
GCN2 = system: GCN2
GSK3B = system: GSK3B
LATS1 = system: LATS1
MAP3K6 = system: MAP3K6
MER = system: MER
MLKL = system: MLKL
NEK2 = system: NEK2
NEK9 = system: NEK9
p38d, p38g = assay: KiNativ kinase profiling in A375 cells; details: Lys2, SEQ ID NO 130, 1.0 μM
PDK1 = system: PDK1
PHKG1 = system: PHKG1
PIK3CD = system: PIK3CD
PIP4K2A = system: PIP4K2A
PIP4K2B = system: PIP4K2B
RAF1 = system: RAF1
RSK1 domain1 = system: RSK1 domain1
RSK4 domain1 = system: RSK4 domain1
RSKL1 = system: RSKL1
VRK2 = system: VRK2
WEE1 = system: WEE1
Wnk1, Wnk2 = assay: KiNativ kinase profiling in A375 cells; details: ATP Loop, SEQ ID NO 193, 1.0 μM
YANK3 = system: YANK3
ZAP70 = system: ZAP70

SMILES: CCN1CCN(Cc2ccc(NC(=O)c3ccc(C)c(Oc4ccnc(Nc5cnn(C)c5)n4)c3)cc2C(F)(F)F)CC1 [(A-14), N-(4-((4-ethylpiperazin-1-yl)methyl)-3-(trifluoromethyl)phenyl)-4-methyl-3-((2-((1-methyl-1H-pyrazol-4-yl)amino)pyrimidin-4-yl)oxy)benzamide]
- BTK phosphorylation (BTK-pY223): inhibit

SMILES: CCN1CCN(Cc2ccc(NC(=O)c3ccc(C)c(Oc4cc(N)ncn4)c3)cc2C(F)(F)F)CC1 [(A-4), 3-((6-aminopyrimidin-4-yl)oxy)-N-(4-((4-ethylpiperazin-1-yl)methyl)-3-(trifluoromethyl)phenyl)-4-methylbenzamide]
- inhibition of kinase labeling (BTK): −18.8%
- inhibition of kinase labeling (CAMK4): 5.9%
- inhibition of kinase labeling (CAMKK2): 6.2%
- inhibition of kinase labeling (CDK2): −3.5%
- inhibition of kinase labeling (CDK4): 17.4%
- inhibition of kinase labeling (CDK5): −27.3%
- inhibition of kinase labeling (CHK1): −5.0%
- inhibition of kinase labeling (CHK2): −7.8%
- inhibition of kinase labeling (eEF2K): −30.5%
- inhibition of kinase labeling (GCK): 94.9%
- inhibition of kinase labeling (GCN2): 20.8%
- inhibition of kinase labeling (GSK3B): 0.5%
- inhibition of kinase labeling (LATS1): 5.4%
- inhibition of kinase labeling (MAP3K6): −25.0%
- inhibition of kinase labeling (MER): 49.8%
- inhibition of kinase labeling (MLKL): −14.9%
- inhibition of kinase labeling (NEK2): −22.7%
- inhibition of kinase labeling (NEK9): −1.2%
- inhibition of kinase labeling (p38d, p38g): 62.5%
- inhibition of kinase labeling (PDK1): 18.8%
- inhibition of kinase labeling (PHKG1): −49.0%
- inhibition of kinase labeling (PIK3CD): 2.2%
- inhibition of kinase labeling (PIP4K2A): −26.7%
- inhibition of kinase labeling (PIP4K2B): −44.7%
- inhibition of kinase labeling (RAF1): 36.6%
- inhibition of kinase labeling (RSK1 domain1): −20.9%
- inhibition of kinase labeling (RSK4 domain1): 27.6%
- inhibition of kinase labeling (RSKL1): 31.5%
- inhibition of kinase labeling (VRK2): 27.9%
- inhibition of kinase labeling (WEE1): 23.2%
- inhibition of kinase labeling (Wnk1, Wnk2): 24.2%
- inhibition of kinase labeling (YANK3): 27.7%
- inhibition of kinase labeling (ZAP70): 49.2%
